According to US11058691B2, “Nitric oxide releasing prostaglandin derivatives for treating normal tension glaucoma” (BAUSCH & LOMB INCORPORATED, priority 2016, dated 2021):
Entries after “also recorded” stand apart in the source; their conditions may differ. Counter-ions that a name gives are not always drawn.

How the values were obtained:
[1] = Post hoc analysis of two Phase 3 clinical studies: IOP lowering in fellow eyes with baseline IOP ≤21 mm Hg; assay type: in vivo, human; conditions: for IOP lowering: fellow eyes with normal IOP at baseline (≤21 mm Hg mean diurnal)
From the text: The findings reported below derive from a post hoc analysis of the results of two multicenter, double-masked, parallel-group Phase 3 clinical studies that evaluated the intraocular pressure (IOP) lowering effect of a 0.024% solution of Compound (1) dissolved in vehicle in subjects with open-angle glaucoma or ocular hypertension.
Subjects≥18 years instilled one drop of a 0.024% solution of Compound (1) once daily in the evening and vehicle in the morning or timolol maleate 0.5% twice daily for 3 months (active controlled efficacy phase). Thereafter all subjects instilled Compound (1) for a further 9 months in the first study or 3 months in the second study (open-label safety extension phase).
Intraocular pressure (IOP) was measured at 8 AM, 12 PM, and 4 PM at all visits including baseline, week 2, week 6, month 3, month 6 (both studies) and months 9 and 12 (first study only).
Non-study (i.e. fellow) eyes with normal IOP at baseline treated with Compound (1) 0.024% once a day in the evening (n=50; treatment for up to 12 months) or with timolol maleate 0.5% twice a day (n=17; treatment for 3 months) were identified, and IOP outcomes were summarized using descriptive statistics and two-sided, 95% confidence intervals (CI) for the means.
Normal IOP was defined as ≤21 mm Hg (mean diurnal; average of 8 AM, 12 PM and 4 PM measurements) in the primarily Caucasian population.

[2] = Post hoc analysis of a single-arm open-label Phase 3 clinical study in Japanese subjects: IOP lowering in eyes with baseline IOP ≤19 mm Hg; assay type: in vivo, human; conditions: Japanese population, baseline IOP ≤19 mm Hg (10 AM); 0.024% solution once daily in the evening; over the 12 months study period
From the text: The findings reported below derive from a post hoc analysis of the results of a single-arm, multicenter, open-label Phase 3 clinical study that evaluated the IOP lowering effect of a 0.024% solution of Compound (1) dissolved in vehicle in Japanese subjects with open-angle glaucoma (including normal-tension glaucoma, pigmentary glaucoma, or pseudoexfoliative glaucoma) or ocular hypertension.
Subjects≥20 years instilled one drop of a 0.024% solution of Compound (1) once daily in the evening for 12 months. Intraocular pressure was measured at 10 AM at baseline, and every 4 weeks thereafter for a total of 13 visits. Study and non-study (i.e. fellow) eyes with normal IOP at baseline treated with Compound (1) 0.024% once a day in the evening (n=66 and n=79 for treated study and treated fellow eyes respectively) were identified, and IOP outcomes were summarized using descriptive statistics and two-sided, 95% confidence intervals (CI) for the means.
Normal IOP was defined as ≤19 mm Hg (mean IOP measured at 10 AM) in the Japanese population, since Asian populations typically have lower IOP than non-Asian populations.

[3] = 3 month efficacy phase, Compound (1) 0.024% once daily in the evening, timolol maleate 0.5% twice daily

Row | Structure (SMILES) | IOP lowering effectiveness (in words) ([1]; eyes with IOP in the normal range (baseline ≤21 mm Hg), 0.024% QD in the evening) | IOP lowering ([1]; 0.024% solution once daily in the evening, over the 12 months study period) | IOP lowering [1, 3] | IOP lowering in the study eye [2] | IOP lowering in the treated fellow eye [2]
1 | O=C(CCC/C=C\C[C@@H]1[C@@H](CC[C@@H](O)CCc2ccccc2)[C@H](O)C[C@@H]1O)OCCCCO[N+](=O)[O-] (relative stereo) [Compound (1), [1R-[1α(Z), 2α(R*), 3α, 5α]]-7-[3,5-dihydroxy-2-(3-hydroxy-5-phenylpentyl)cyclopentyl]-5-heptenoic acid 4-(nitrooxy)butyl ester] | appears to be more effective than timolol maleate; also recorded: effective for IOP lowering in eyes with IOP in the normal range | 4.2-4.9 mm Hg | 4.6-4.9 mm Hg | 3.4-4.2 mm Hg | 3.2-3.9 mm Hg
2 | CC(C)(C)NC[C@H](O)COc1nsnc1N1CCOCC1 [timolol maleate, reference compound] |  |  | 3.6-4.5 mm Hg |  | 
